Assay results as given in ChEMBL document CHEMBL1152378 (Bioorg Med Chem Lett, 2009).
Blank lines part the entries; values can stand above or below the compound they belong to.

How the values were obtained:
[1] = molecular target: Carbonic anhydrase 2 (Homo sapiens, UniProt P00918)
[2] = molecular target: Carbonic anhydrase 5B, mitochondrial (Homo sapiens, UniProt Q9Y2D0)
[3] = molecular target: Carbonic anhydrase 5A, mitochondrial (Homo sapiens, UniProt P35218)
[4] = molecular target: Carbonic anhydrase 9 (Homo sapiens, UniProt Q16790)
[5] = molecular target: Carbonic anhydrase 7 (Homo sapiens, UniProt P43166)
[6] = molecular target: Carbonic anhydrase 13 (Mus musculus, UniProt Q9D6N1)
[7] = molecular target: Carbonic anhydrase 12 (Homo sapiens, UniProt O43570)
[8] = molecular target: Carbonic anhydrase 14 (Homo sapiens, UniProt Q9ULX7)
[9] = molecular target: T1, Carbonic anhydrase 15 (Mus musculus, UniProt Q99N23)
T1 sequence (Q99N23 whole entry): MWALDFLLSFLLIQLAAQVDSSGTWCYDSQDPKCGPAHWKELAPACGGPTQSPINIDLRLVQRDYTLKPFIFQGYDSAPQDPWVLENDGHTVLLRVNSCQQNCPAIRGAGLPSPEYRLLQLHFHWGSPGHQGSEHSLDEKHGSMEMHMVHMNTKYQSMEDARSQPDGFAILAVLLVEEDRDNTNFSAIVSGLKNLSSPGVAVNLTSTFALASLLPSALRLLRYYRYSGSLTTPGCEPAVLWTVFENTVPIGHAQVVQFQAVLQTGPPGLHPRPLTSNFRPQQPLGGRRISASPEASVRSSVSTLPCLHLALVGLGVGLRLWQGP

[10] = molecular target: Carbonic anhydrase 1 (Homo sapiens, UniProt P00915)
Description: Inhibition of human carbonic anhydrase 1 by stopped flow CO2 hydration assay

[11] = molecular target: Carbonic anhydrase 3 (Homo sapiens, UniProt P07451)
[12] = molecular target: Carbonic anhydrase 6 (Homo sapiens, UniProt P23280)
[13] = molecular target: Carbonic anhydrase 4 (Homo sapiens, UniProt P22748)
Sequence of Carbonic anhydrase 4 (P22748 whole entry): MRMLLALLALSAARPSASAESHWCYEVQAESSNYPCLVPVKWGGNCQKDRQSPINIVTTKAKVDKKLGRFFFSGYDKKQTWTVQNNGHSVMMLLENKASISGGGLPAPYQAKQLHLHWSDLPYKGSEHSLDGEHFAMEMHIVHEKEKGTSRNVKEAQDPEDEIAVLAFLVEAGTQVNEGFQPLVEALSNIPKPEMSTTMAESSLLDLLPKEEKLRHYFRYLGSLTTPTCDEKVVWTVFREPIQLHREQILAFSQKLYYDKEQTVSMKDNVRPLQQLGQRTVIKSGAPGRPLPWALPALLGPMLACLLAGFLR

Sequence of Carbonic anhydrase 5B, mitochondrial (Q9Y2D0 whole entry): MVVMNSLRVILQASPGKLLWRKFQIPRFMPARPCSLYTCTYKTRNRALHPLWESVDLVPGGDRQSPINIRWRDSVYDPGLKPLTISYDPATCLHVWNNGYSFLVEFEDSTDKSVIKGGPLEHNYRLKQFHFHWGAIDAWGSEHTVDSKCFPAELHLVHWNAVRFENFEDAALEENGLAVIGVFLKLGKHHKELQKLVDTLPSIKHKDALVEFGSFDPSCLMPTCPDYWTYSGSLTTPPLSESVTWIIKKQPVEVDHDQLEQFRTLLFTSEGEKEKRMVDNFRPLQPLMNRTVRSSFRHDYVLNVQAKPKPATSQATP
Sequence of Carbonic anhydrase 12 (O43570 whole entry): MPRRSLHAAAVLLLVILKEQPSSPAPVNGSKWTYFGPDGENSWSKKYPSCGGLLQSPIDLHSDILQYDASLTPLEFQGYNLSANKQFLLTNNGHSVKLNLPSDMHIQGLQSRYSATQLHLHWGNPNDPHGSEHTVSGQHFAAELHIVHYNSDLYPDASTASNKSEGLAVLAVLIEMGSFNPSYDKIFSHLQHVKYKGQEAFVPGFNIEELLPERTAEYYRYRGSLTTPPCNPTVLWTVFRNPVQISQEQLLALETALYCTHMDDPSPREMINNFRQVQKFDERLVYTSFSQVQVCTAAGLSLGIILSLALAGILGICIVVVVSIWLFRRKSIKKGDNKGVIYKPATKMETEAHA
Sequence of Carbonic anhydrase 5A, mitochondrial (P35218 whole entry): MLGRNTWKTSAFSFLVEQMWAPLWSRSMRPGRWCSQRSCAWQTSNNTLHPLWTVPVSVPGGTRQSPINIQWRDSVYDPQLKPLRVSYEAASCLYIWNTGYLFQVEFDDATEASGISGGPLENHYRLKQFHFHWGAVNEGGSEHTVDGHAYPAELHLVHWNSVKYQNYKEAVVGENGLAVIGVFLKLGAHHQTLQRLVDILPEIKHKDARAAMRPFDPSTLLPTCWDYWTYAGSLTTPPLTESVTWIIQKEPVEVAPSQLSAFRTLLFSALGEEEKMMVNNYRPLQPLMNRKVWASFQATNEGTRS
Sequence of Carbonic anhydrase 14 (Q9ULX7 whole entry): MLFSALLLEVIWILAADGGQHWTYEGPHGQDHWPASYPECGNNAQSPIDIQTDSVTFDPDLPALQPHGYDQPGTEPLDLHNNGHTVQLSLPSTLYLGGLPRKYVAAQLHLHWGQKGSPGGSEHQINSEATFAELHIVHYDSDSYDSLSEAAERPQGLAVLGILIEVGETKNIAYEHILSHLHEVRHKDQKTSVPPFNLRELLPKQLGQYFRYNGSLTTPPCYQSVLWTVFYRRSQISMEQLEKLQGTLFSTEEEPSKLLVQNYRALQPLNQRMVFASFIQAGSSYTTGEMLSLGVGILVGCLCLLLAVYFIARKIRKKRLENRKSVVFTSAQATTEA
Sequence of Carbonic anhydrase 1 (P00915 whole entry): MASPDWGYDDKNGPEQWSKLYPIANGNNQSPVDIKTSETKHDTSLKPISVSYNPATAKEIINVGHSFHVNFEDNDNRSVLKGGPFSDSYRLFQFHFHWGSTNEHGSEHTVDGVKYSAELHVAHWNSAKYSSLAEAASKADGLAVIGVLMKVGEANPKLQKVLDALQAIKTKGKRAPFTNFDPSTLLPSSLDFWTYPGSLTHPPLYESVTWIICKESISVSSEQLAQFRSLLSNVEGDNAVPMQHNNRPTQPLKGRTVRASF
Sequence of Carbonic anhydrase 3 (P07451 whole entry): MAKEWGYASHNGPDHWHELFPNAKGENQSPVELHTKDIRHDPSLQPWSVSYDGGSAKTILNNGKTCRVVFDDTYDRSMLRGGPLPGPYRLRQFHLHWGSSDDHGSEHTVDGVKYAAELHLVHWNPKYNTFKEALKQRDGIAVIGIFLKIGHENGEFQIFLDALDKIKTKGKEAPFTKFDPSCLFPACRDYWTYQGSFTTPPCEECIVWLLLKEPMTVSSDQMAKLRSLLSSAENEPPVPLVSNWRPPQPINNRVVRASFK
Sequence of Carbonic anhydrase 6 (P23280 whole entry): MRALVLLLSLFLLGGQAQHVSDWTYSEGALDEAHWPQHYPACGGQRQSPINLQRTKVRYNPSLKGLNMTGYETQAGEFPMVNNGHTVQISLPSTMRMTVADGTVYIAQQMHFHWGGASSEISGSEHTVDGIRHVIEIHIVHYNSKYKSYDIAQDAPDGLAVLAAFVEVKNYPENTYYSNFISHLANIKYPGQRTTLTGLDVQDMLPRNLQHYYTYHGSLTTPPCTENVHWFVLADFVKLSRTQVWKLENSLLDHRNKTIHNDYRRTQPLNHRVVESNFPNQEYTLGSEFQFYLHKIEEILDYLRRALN
Sequence of Carbonic anhydrase 13 (Q9D6N1 whole entry): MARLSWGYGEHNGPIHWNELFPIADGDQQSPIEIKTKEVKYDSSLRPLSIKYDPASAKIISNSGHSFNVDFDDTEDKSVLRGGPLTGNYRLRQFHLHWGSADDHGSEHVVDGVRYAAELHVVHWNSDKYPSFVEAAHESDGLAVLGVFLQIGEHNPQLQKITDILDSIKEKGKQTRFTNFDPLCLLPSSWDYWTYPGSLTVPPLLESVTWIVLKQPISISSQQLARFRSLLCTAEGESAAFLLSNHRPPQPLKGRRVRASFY
Sequence of Carbonic anhydrase 7 (P43166 whole entry): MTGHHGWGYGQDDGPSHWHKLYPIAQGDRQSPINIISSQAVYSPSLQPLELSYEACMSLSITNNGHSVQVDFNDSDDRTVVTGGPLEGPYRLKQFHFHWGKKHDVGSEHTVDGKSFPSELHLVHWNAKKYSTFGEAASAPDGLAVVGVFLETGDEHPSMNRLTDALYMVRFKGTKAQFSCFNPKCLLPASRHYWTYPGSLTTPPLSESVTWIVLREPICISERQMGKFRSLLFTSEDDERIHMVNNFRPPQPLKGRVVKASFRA

SMILES: C#CCNc1nc(Nc2ccc(S(N)(=O)=O)cc2)ncc1Br
IC50 [1]: 331 nM

IC50 [2]: 17700 nM
IC50 [3]: 9600 nM
IC50 [4]: 54500 nM
IC50 [5]: 27900 nM
IC50 [6]: 790 nM
IC50 [7]: 48600 nM
IC50 [8]: 780 nM
IC50 [9]: 93100 nM
IC50 [10]: 78 nM
IC50 [11]: > 10 nM
IC50 [12]: 35700 nM
SMILES: COc1cc(O)c(/C=C\C(=O)O)cc1[C@@H](O)CC(C)C

Ki [2]: 14900 nM
Ki [3]: 5490 nM
Ki [4]: 41.9 nM
Ki [6]: 4670 nM
Ki [7]: 302 nM
Ki [8]: 223 nM
Ki [9]: 79 nM
Ki [10]: 29.3 nM
Ki [13]: 446 nM
Ki [11]: 443 nM
Ki [12]: 461 nM
SMILES: Cc1cn(-c2cc(NC(=O)c3ccc(C)c(Nc4nccc(-c5cccnc5)n4)c3)cc(C(F)(F)F)c2)cn1 [NILOTINIB]
